From ChEMBL document CHEMBL6109129, “Discovery of Conformationally Constrained Dihydro Benzo-Indole Derivatives as Metallo-β-Lactamase Inhibitors to Tackle Multidrug-Resistant Bacterial Infections” (J Med Chem, 2025)
Active and inactive are the calls of the source. No cut-off for these calls is given here.

Experiments:
[1] = target: Metallo-beta-lactamase type 2 (Bacteria, UniProt C7C422); test: Inhibition of N-terminal truncated NDM1 (1 to 49N residues) (unknown origin) extracted from Escherichia coli BL21(DE3) cells using FC5 as substrate preincubated for 10 mins followed by substrate addition and measured immediately by fluorescence based analysis
[2] = Inhibition of IMP-1 (unknown origin) using FC5 as substrate preincubated for 10 mins followed by substrate addition and measured immediately by fluorescence based analysis; set-up: species or system Bacteria
[3] = Inhibition of VIM-1 (unknown origin) using FC5 as substrate preincubated for 10 mins followed by substrate addition and measured immediately by fluorescence based analysis; set-up: species or system Bacteria
[4] = target: Metallo-beta-lactamase type 2 (Bacteria) (UniProt C7C422); test: Induction of thermal stabilization of NDM-1 (unknown origin) assessed as melting temperature at 50 uM by differential scanning fluorimetry analysis
[5] = target: Metallo-beta-lactamase type 2 (Bacteria) (UniProt C7C422); test: Induction of thermal stabilization of NDM-1 (unknown origin) assessed as increase in melting temperature by differential scanning fluorimetry analysis; conditions: dose 3.12-50 µM
Klebsiella pneumoniae [6] = test: Synergistic antibacterial activity against Klebsiella pneumoniae ATCC BAA 2146 expressing NDM-1 measured after 16 to 18 hrs in presence of meropenem by microbial dilution method; format: functional, organism-based; conditions: time 16-18 hrs
[7] = target: Metallo-beta-lactamase type 2 (Bacteria) (UniProt C7C422); test: Induction of thermal stabilization of NDM-1 (unknown origin) assessed as melting temperature at 25 uM by differential scanning fluorimetry analysis
[8] = target: Metallo-beta-lactamase type 2 (Bacteria) (UniProt C7C422); test: Induction of thermal stabilization of NDM-1 (unknown origin) assessed as melting temperature at 6.25 uM by differential scanning fluorimetry analysis
Klebsiella pneumoniae [9] = test: Synergistic antibacterial activity against Klebsiella pneumoniae ATCC BAA 2146 expressing NDM-1 measured after 16 to 18 hrs in presence of imipenem by microbial dilution method; format: functional, organism-based; conditions: time 16-18 hrs
[10] = target: Metallo-beta-lactamase type 2 (Bacteria) (UniProt C7C422); test: Induction of thermal stabilization of NDM-1 (unknown origin) assessed as melting temperature at 12.5 uM by differential scanning fluorimetry analysis

Chain of Metallo-beta-lactamase type 2 (Bacteria) (C7C422 whole entry): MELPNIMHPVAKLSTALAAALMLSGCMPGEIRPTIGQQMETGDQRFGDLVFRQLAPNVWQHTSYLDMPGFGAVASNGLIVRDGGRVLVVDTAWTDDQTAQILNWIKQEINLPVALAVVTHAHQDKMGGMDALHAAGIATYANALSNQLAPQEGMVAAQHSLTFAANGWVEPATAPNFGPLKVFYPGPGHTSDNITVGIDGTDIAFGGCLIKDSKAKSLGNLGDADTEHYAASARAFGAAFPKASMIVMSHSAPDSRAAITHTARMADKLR
Chain of Metallo-beta-lactamase type 2 (C7C422 whole entry, the tested form may be a part): as the sequence (C7C422 whole entry) above

SMILES	IC50 [1] [µM]	IC50 [2] [µM]	IC50 [3] [µM]	also measured
O=C(O)c1cc2c([nH]1)-c1ccccc1CC2	8.2	23	7	–
Cc1ccc(-c2c(C(=O)O)[nH]c3c2CCc2ccccc2-3)c(F)c1	0.0077	4.6	1.5	–
O=C(O)c1[nH]c2c(c1-c1cccc(F)c1F)CCc1ccccc1-2	0.268	2.4	1.9	–
O=C(O)c1[nH]c2c(c1-c1ccc(F)c(F)c1)CCc1ccccc1-2	0.0029	6.4	1.1	–
Cc1cc(C(=O)O)[nH]c1-c1ccccc1	10.6	44	96	–
COc1cc(F)cc(-c2c(C(=O)O)[nH]c3c2CCc2ccccc2-3)c1	0.0068	15	3.5	–
O=C(O)c1[nH]c2c(c1-c1cccc(Cl)c1Cl)CCc1ccccc1-2	0.015	22	–	–
O=C(O)c1[nH]c2c(c1-c1ccncc1)CCc1ccccc1-2	0.071	14	2.6	–

The next compounds have a lower IC50 [2] than those just listed; values first:

IC50 [1] [µM]	IC50 [2] [µM]	IC50 [3] [µM]	SMILES	also measured
0.005	0.914	0.308	COc1cc(OC)cc(-c2c(C(=O)O)[nH]c3c2CCc2ccccc2-3)c1	–
0.058	2.3	0.613	O=C(O)c1[nH]c2c(c1-c1ccccc1F)CCc1ccccc1-2	–
–	1.2	2.2	O=C(O)c1[nH]c2c(c1-c1cc(Cl)c(Cl)c(Cl)c1)CCc1ccccc1-2	–
0.0025	0.35	0.468	O=C(O)c1[nH]c2c(c1-c1cccc(Cl)c1)CCc1ccccc1-2	–
–	0.32	0.557	Cc1cc(Cl)cc(-c2c(C(=O)O)[nH]c3c2CCc2ccccc2-3)c1	–
0.008	0.428	0.034	O=C(O)c1[nH]c2c(c1-c1cc(Cl)cc(Cl)c1)CCc1ccccc1-2	Tm [4]: 14 °C; Activity [5]: Active; Activity (Klebsiella pneumoniae [6]): Active; Tm [7]: 11 °C; ΔTm [8]: 1 °C; Activity (Klebsiella pneumoniae [9]): Active; Tm [10]: 8 °C
0.0031	2.1	1.7	O=C(O)c1[nH]c2c(c1-c1ccc(Cl)cc1)CCc1ccccc1-2	–
–	0.303	0.438	COc1cc(Cl)cc(-c2c(C(=O)O)[nH]c3c2CCc2ccccc2-3)c1	–
0.0236	1.7	0.58	COc1cc(F)ccc1-c1c(C(=O)O)[nH]c2c1CCc1ccccc1-2	–
